Reference: PubChem BioAssay AID1963982 (Molecular Pharmacology Branch, DTP, NCI, 2024)

System: 313798-341-R-J2-PDC spheroids, viability
Assay: Anticancer human tumor 313798-341-R-J2-PDC patient-derived cervical squamous cell carcinoma cell line growth inhibition [PI3K]
Conditions: spheroids with HUVEC and MSC; for IC50: curve of first compound; for viability, T/C: stronger effect = lower value; active means viability on the fitted dose curve at most 10% of control; inactive means the rest
Source text: Combinatorial screen of targeted agents with the PI3K inhibitors inavolisib, alpelisib, duvelisib, and copanlisib in multi-cell type tumor spheroids
A high-throughput screen of multi-cell type tumor spheroids was designed to identify active combinations of targeted small molecules and PI3K pathway inhibitors. Complex spheroids include a stromal component modeled by human endothelial cells (HUVEC) and fibroblasts modeled by human mesenchymal stem cells (MSCs). The concentration ranges selected for each drug and investigational agent were based upon clinically achievable concentrations if the clinical Cmax of the agent was known.
Compounds. The drugs and investigational agents: inavolisib (NSC800729), alpelisib (NSC765974), duvelisib (NSC772469), copanlisib (NSC816437), ipatasertib (NSC767898), afuresertib (NSC778305), talazoparib (NSC767125), sapanisertib (NSC764658), selumetinib (NSC741078), tovorafenib (DAY101, NSC766906), vemurafenib (NSC761431), ravoxertinib (NSC781343), sotorasib (NSC818433), MRTX1133 (NSC 836407), abemaciclib (NSC 768073), palbociclib (NSC758247), venetoclax (NSC 766270), SY5609 (NSC837396), enzalutamide (NSC755605), and darolutamide (NSC825331), were obtained from the National Cancer Institute (NCI) Developmental Therapeutics Program Chemical Repository. The FDA-approved anticancer drug set is available from the NCI Developmental Therapeutics Program. […] The stock solutions were prepared in dimethyl sulfoxide (DMSO, Sigma-Aldrich, St. Louis, MO, cat. D2650) at 800-fold the tested concentration and stored at -70 degrees C prior to their use. All drugs and investigational agents were tested over a range starting from a high concentration at or near the clinical Cmax and decreasing in half-log increments. If the clinical Cmax for an agent had not been determined, the highest concentration tested was 10 microM.
Cell Culture. All cells were maintained in an incubator at 37 degrees C and 5% CO2 with 95% humidity. The PDC lines were cultured according to standard operating procedures established by the NCI PDMR (https://pdmr.cancer.gov/sops/default.htm). All PDCs were thawed and cultured in Matrigel-coated flasks prepared with a working solution of 1X Ham's F-12 nutrient mix, without supplementation (Invitrogen, Waltham, MA, cat. 11765054), 100 U/mL penicillin-streptomycin (Invitrogen, cat. 15140122), and 2.5% Matrigel (Corning Inc., Corning, NY, cat. 354248) for the first three passages. The 354836-022-R-J1-PDC, 475296-252-R-J1-PDC, and 997726-040-R-J2-PDC lines were cultured in 6A media, which includes advanced DMEM/F-12 (Thermo Fisher Scientific, cat. 12634028), 10 mM HEPES (Thermo Fisher Scientific, cat. 15630080), 1X GlutaMAX supplement (Thermo Fisher Scientific, cat. 35050061), 0.1 mg/mL primocin (InvivoGen, San Diego, CA, cat. ant-pm-2), 10% defined fetal bovine serum, heat inactivated (HyClone Laboratories Inc., Logan, UT, cat. SH30070.03HI), 50% L-WRN conditioned media (ATCC, cat. CRL-3276), 1.25 mM N-Acetyl-L-cysteine (Sigma-Aldrich, cat. A9165), 10 mM nicotinamide (Sigma-Aldrich, cat. N0636), 1X B-27 supplement (Thermo Fisher Scientific, cat. 17504044), 1X N-2 supplement (Thermo Fisher Scientific, cat. 17502048), and 10 microM Y-27632 dihydrochloride (Tocris Bioscience, Bristol, United Kingdom, cat. 1254). The 624824-186-R-J2-PDC line was cultured in 6C/Colon 1B media, which includes all 6A media components plus 50 ng/mL human EGF recombinant protein (Thermo Fisher Scientific, cat. PHG0311). […]

[1] = second compound 0.00316 µM, first compound 0.0316 µM
[2] = second compound 0.00316 µM, first compound 0.1 µM
[3] = second compound 0.01 µM, first compound 0.0316 µM
[4] = second compound 0.01 µM, first compound 0.1 µM
[5] = second compound 0.0316 µM, first compound 0.0316 µM
[6] = second compound 0.0316 µM, first compound 0.1 µM
[7] = second compound 0.1 µM, first compound 0.0316 µM
[8] = second compound 0.1 µM, first compound 0.1 µM
[9] = second compound 0.316 µM, first compound 0.0316 µM
[10] = second compound 0.316 µM, first compound 0.1 µM
[11] = second compound 1 µM, first compound 0.0316 µM
[12] = second compound 1 µM, first compound 0.1 µM
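Further: spheroids exposed to compounds for seven days.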

CC(C)n1nc(-c2ccc3oc(N)nc3c2)c2c(N)ncnc21 + CC(Nc1ccc2c(c1)OCCn1cc(N3C(=O)OCC3C(F)F)nc1-2)C(N)=O
48.8 nM: IC50 (second compound 0.0316 µM)
inactive: viability, T/C (second compound 0.00316 µM, first compound 0.000316 µM) 90.9% | viability, T/C (second compound 0.00316 µM, first compound 0.001 µM) 99% | viability, T/C (second compound 0.00316 µM, first compound 0.00316 µM) 119% | viability, T/C (second compound 0.00316 µM, first compound 0.01 µM) 92.8% | viability, T/C [1] 78% | viability, T/C [2] 37.8% | viability, T/C (second compound 0.01 µM, first compound 0.000316 µM) 83.8% | viability, T/C (second compound 0.01 µM, first compound 0.001 µM) 90.4% | viability, T/C (second compound 0.01 µM, first compound 0.00316 µM) 100% | viability, T/C (second compound 0.01 µM, first compound 0.01 µM) 103% | viability, T/C [3] 73.2% | viability, T/C [4] 37.2% | viability, T/C (second compound 0.0316 µM, first compound 0.000316 µM) 94.6% | viability, T/C (second compound 0.0316 µM, first compound 0.001 µM) 92.3% | viability, T/C (second compound 0.0316 µM, first compound 0.00316 µM) 92.1% | viability, T/C (second compound 0.0316 µM, first compound 0.01 µM) 92.6% | viability, T/C [5] 60.6% | viability, T/C [6] 32.4% | viability, T/C (second compound 0.1 µM, first compound 0.000316 µM) 95.6% | viability, T/C (second compound 0.1 µM, first compound 0.001 µM) 97.4% | viability, T/C (second compound 0.1 µM, first compound 0.00316 µM) 92.2% | viability, T/C (second compound 0.1 µM, first compound 0.01 µM) 69.3% | viability, T/C [7] 49.6% | viability, T/C [8] 33.2% | viability, T/C (second compound 0.316 µM, first compound 0.000316 µM) 83.4% | viability, T/C (second compound 0.316 µM, first compound 0.001 µM) 70.9% | viability, T/C (second compound 0.316 µM, first compound 0.00316 µM) 64.8% | viability, T/C (second compound 0.316 µM, first compound 0.01 µM) 54.7% | viability, T/C [9] 43.5% | viability, T/C [10] 25.1% | viability, T/C (second compound 1 µM, first compound 0.000316 µM) 55.3% | viability, T/C (second compound 1 µM, first compound 0.001 µM) 53.1% | viability, T/C (second compound 1 µM, first compound 0.00316 µM) 45% | viability, T/C (second compound 1 µM, first compound 0.01 µM) 42.1% | viability, T/C [11] 32.9% | viability, T/C [12] 14.3%
66.3 nM: IC50 (second compound 0.01 µM)
70.2 nM: IC50 (second compound 0.00316 µM)
14.2 nM: IC50 (second compound 0.316 µM)
1.85 nM: IC50 (second compound 1 µM)
28.2 nM: IC50 (second compound 0.1 µM)

CC1(C)CCC(CN2CCN(c3ccc(C(=O)NS(=O)(=O)c4ccc(NCC5CCOCC5)c([N+](=O)[O-])c4)c(Oc4cnc5[nH]ccc5c4)c3)CC2)=C(c2ccc(Cl)cc2)C1 + CC(Nc1ccc2c(c1)OCCn1cc(N3C(=O)OCC3C(F)F)nc1-2)C(N)=O
5410 nM: IC50 (second compound 0.0316 µM)
inactive: viability, T/C [1] 93.1% | viability, T/C [2] 92.4% | viability, T/C (second compound 0.00316 µM, first compound 0.316 µM) 95.5% | viability, T/C (second compound 0.00316 µM, first compound 1 µM) 89.4% | viability, T/C (second compound 0.00316 µM, first compound 3.16 µM) 81.3% | viability, T/C (second compound 0.00316 µM, first compound 10 µM) 16.9% | viability, T/C [3] 100% | viability, T/C [4] 93.2% | viability, T/C (second compound 0.01 µM, first compound 0.316 µM) 98.5% | viability, T/C (second compound 0.01 µM, first compound 1 µM) 90.7% | viability, T/C (second compound 0.01 µM, first compound 3.16 µM) 84.2% | viability, T/C (second compound 0.01 µM, first compound 10 µM) 16.5% | viability, T/C [5] 92.6% | viability, T/C [6] 86.3% | viability, T/C (second compound 0.0316 µM, first compound 0.316 µM) 89.5% | viability, T/C (second compound 0.0316 µM, first compound 1 µM) 93.2% | viability, T/C (second compound 0.0316 µM, first compound 3.16 µM) 78.3% | viability, T/C (second compound 0.0316 µM, first compound 10 µM) 17% | viability, T/C [7] 94.1% | viability, T/C [8] 102% | viability, T/C (second compound 0.1 µM, first compound 0.316 µM) 90.4% | viability, T/C (second compound 0.1 µM, first compound 1 µM) 90.9% | viability, T/C (second compound 0.1 µM, first compound 3.16 µM) 67.2% | viability, T/C (second compound 0.1 µM, first compound 10 µM) 17% | viability, T/C [9] 79.7% | viability, T/C [10] 69.7% | viability, T/C (second compound 0.316 µM, first compound 0.316 µM) 78.2% | viability, T/C (second compound 0.316 µM, first compound 1 µM) 60.1% | viability, T/C (second compound 0.316 µM, first compound 3.16 µM) 44.8% | viability, T/C (second compound 0.316 µM, first compound 10 µM) 16.5% | viability, T/C [11] 51.6% | viability, T/C [12] 49.7% | viability, T/C (second compound 1 µM, first compound 0.316 µM) 51.8% | viability, T/C (second compound 1 µM, first compound 1 µM) 49.2% | viability, T/C (second compound 1 µM, first compound 3.16 µM) 35.8% | viability, T/C (second compound 1 µM, first compound 10 µM) 14%
609 nM: IC50 (second compound 1 µM)
4710 nM: IC50 (second compound 0.1 µM)
2190 nM: IC50 (second compound 0.316 µM)
5660 nM: IC50 (second compound 0.01 µM)
5510 nM: IC50 (second compound 0.00316 µM)
